One assay has as its target T1, HDAC6 human recombinant (Homo sapiens, UniProt Q9UBN7).
T1 construct: purchased Calbiochem 382180
T1 sequence (Q9UBN7 1-1215): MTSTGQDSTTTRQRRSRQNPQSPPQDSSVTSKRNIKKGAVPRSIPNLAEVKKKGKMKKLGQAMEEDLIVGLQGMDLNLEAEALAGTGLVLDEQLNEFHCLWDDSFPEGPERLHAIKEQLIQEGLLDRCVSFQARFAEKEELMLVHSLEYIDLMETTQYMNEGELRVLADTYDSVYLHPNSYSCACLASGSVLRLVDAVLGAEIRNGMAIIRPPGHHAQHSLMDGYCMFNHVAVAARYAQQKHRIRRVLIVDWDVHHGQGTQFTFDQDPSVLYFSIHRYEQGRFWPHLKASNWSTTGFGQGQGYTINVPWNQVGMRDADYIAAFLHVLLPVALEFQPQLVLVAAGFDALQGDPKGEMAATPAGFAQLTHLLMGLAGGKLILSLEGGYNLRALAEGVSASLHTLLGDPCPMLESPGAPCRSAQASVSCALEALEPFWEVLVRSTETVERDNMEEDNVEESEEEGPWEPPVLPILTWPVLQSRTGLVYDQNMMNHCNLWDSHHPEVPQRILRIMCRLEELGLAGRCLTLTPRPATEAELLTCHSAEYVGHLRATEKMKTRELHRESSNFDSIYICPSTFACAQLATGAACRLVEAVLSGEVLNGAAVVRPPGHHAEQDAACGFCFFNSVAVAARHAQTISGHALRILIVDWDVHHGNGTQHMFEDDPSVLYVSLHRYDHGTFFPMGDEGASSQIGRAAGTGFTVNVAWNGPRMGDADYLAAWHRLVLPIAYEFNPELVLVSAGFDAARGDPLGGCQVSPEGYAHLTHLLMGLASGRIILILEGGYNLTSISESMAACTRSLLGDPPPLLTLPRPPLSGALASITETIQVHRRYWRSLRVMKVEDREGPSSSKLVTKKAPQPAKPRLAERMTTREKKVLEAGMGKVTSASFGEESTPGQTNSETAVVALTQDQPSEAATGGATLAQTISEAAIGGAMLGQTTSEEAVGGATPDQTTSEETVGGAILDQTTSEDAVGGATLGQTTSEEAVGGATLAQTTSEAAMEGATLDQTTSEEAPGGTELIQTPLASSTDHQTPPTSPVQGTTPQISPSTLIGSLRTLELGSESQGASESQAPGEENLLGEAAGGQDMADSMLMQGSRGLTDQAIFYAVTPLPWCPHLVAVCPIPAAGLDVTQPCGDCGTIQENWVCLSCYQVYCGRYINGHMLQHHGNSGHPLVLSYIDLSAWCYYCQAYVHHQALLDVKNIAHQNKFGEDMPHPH
As to the kind of experiment: HDAC enzyme activity inhibition (in vitro), HDAC6 assay. The class given is biochemical. The procedure, abridged: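 Fluorescence (Ex 390, Em 460) read after a 37° C, 60 min enzyme reaction and a further 30 min developer step at 37° C. Uses recombinant human HDAC6; HDAC1 arm dosed at 100, 1000, 10000 nM.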

In another assay the target is T2, HDAC1 (Homo sapiens, UniProt Q13547).
T2 construct: purchased Enzolifesciences BML-AK511
Put plainly: HDAC enzyme activity inhibition (in vitro), HDAC1 Fluorimetric Drug Discovery Assay Kit. In kind it is biochemical. In a few lines:
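Fluorescence read-out (Ex 390/Em 460) after developer step, 30 min at 37° C, following a 60-min 37° C enzyme reaction. Test concentrations: HDAC1 kit, 100–10000 nM (three levels); recombinant human HDAC6, 0.1–1000 nM (five levels).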

[1] abbreviates: samples at 0.1, 1, 10, 100 and 1000 nM, 37° C. 60 minutes, fluorescence Ex 390, Em 460, read-out: HDAC6 IC50.
[2] abbreviates: samples at 100, 1000 and 10000 nM, 37° C. 60 minutes, fluorescence Ex 390, Em 460, read-out: HDAC1 IC50.

Where two headings read alike, the source gives them in different places.

T2 sequence (Q13547 whole entry): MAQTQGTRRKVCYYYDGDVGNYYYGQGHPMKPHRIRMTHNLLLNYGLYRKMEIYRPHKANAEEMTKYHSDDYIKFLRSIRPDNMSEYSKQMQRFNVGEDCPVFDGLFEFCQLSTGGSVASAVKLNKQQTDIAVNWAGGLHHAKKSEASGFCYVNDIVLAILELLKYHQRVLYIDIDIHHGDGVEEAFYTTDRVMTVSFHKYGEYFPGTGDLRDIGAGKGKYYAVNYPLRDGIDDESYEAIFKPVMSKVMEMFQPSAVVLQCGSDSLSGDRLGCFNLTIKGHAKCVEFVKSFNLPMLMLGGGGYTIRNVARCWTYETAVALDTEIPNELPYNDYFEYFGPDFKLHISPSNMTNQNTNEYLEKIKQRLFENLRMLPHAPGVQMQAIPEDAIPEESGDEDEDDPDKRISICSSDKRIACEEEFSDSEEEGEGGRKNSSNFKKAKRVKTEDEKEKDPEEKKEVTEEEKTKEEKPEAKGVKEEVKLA

For orientation: IC50 means the concentration that inhibits the measured activity by half. Turning to `CC(C)N1CCC(n2c(=O)n(Cc3ccc(-c4nnc(C(F)F)o4)cn3)c3cc(F)ccc32)CC1` [Compound 51, 3-((5-(5-(difluoromethyl)-1,3,4-oxadiazole-2-yl)pyridine-2-yl)methyl)-5-fluoro-1-(1-isopropylpiperidine-4-yl)-1,3-dihydro-2H-benzo[d]imidazole-2-one], the values for the IC50 on HDAC6 human recombinant (setting [1]) and on HDAC1 (setting [2]) were 32 nM and over 10000 nM, respectively.
For the compound `O=c1n(Cc2ccc(-c3nnc(C(F)F)o3)cn2)c2cc(F)ccc2n1C1CCN(C2COC2)CC1` [Compound 53, 3-((5-(5-(difluoromethyl)-1,3,4-oxadiazole-2-yl)pyridine-2-yl)methyl)-5-fluoro-1-(1-(oxetan-3-yl)piperidine-4-yl)-1,3-dihydro-2H-benzo[d]imidazole-2-one], the IC50 was 37 nM at HDAC6 human recombinant (setting [1]) and over 10000 nM on HDAC1 (setting [2]).
In the case of `O=c1n(Cc2ccc(-c3nnc(C(F)F)o3)cn2)c2cc(F)ccc2n1C1CCN(C2CCCCC2)CC1` [Compound 54, 1-(1-cyclohexylpiperidine-4-yl)-3-((5-(5-(difluoromethyl)-1,3,4-oxadiazole-2-yl)pyridine-2-yl)methyl)-5-fluoro-1,3-dihydro-2H-benzo[d]imidazole-2-one], the IC50 is 39 nM at HDAC6 human recombinant (setting [1]) and over 10000 nM at HDAC1 (setting [2]).
As for `O=c1n(Cc2ccc(-c3nnc(C(F)F)o3)cn2)c2cc(F)ccc2n1C1CCN(C2CCOCC2)CC1` [Compound 55, 3-((5-(5-(difluoromethyl)-1,3,4-oxadiazole-2-yl)pyridine-2-yl)methyl)-5-fluoro-1-(1-(tetrahydro-2H-pyran-4-yl)piperidine-4-yl)-1,3-dihydro-2H-benzo[d]imidazole-2-one], the IC50 on HDAC6 human recombinant (setting [1]) is 39 nM; on HDAC1 (setting [2]), over 10000 nM.
Regarding `COCC(C)N1CCC(n2c(=O)n(Cc3ccc(-c4nnc(C(F)F)o4)cn3)c3cc(F)ccc32)CC1` (stereo not drawn) [Compound 56, 3-((5-(5-(difluoromethyl)-1,3,4-oxadiazole-2-yl)pyridine-2-yl)methyl)-5-fluoro-1-(1-(1-methoxypropane-2-yl)piperidine-4-yl)-1,3-dihydro-2H-benzo[d]imidazole-2-one], the 50% inhibitory concentration (IC50) is 34 nM at HDAC6 human recombinant (setting [1]) and over 10000 nM at HDAC1 (setting [2]).
Regarding `O=c1n(Cc2ccc(-c3nnc(C(F)F)o3)cn2)c2cc(F)ccc2n1C1CCN(C2CCSCC2)CC1` [Compound 57, 3-((5-(5-(difluoromethyl)-1,3,4-oxadiazole-2-yl)pyridine-2-yl)methyl)-5-fluoro-1-(1-(tetrahydro-2H-thiopyran-4-yl)piperidine-4-yl)-1,3-dihydro-2H-benzo[d]imidazole-2-one], the IC50 on HDAC6 human recombinant (setting [1]) is 36 nM; on HDAC1 (setting [2]), over 10000 nM.
Taken in the same sequence, the figures for `O=c1n(Cc2ccc(-c3nnc(C(F)F)o3)cn2)c2cc(F)ccc2n1C1CCN(C2CCC3(CC2)OCCO3)CC1` [Compound 58, 1-(1-(1,4-dioxaspiro[4.5]decane-8-yl)piperidine-4-yl)-3-((5-(5-(difluoromethyl)-1,3,4-oxadiazole-2-yl)pyridine-2-yl)methyl)-5-fluoro-1,3-dihydro-2H-benzo[d]imidazole-2-one] were 28 nM and over 10000 nM.
Regarding `CC(=O)N1CCC(N2CCC(n3c(=O)n(Cc4ccc(-c5nnc(C(F)F)o5)cn4)c4cc(F)ccc43)CC2)CC1` [Compound 59, 1-(1′-acetyl-[1,4′-bipiperidine]-4-yl)-3-((5-(5-(difluoromethyl)-1,3,4-oxadiazole-2-yl)pyridine-2-yl)methyl)-5-fluoro-1,3-dihydro-2H-benzo[d]imidazole-2-one], the concentration for half-maximal inhibition (IC50) was 38 nM on HDAC6 human recombinant and over 10000 nM on HDAC1.
`CC(=O)N1CCC(n2c(=O)n(Cc3ccc(-c4nnc(C(F)F)o4)cn3)c3cc(F)ccc32)CC1` [Compound 60, 1-(1-acetylpiperidine-4-yl)-3-((5-(5-(difluoromethyl)-1,3,4-oxadiazole-2-yl)pyridine-2-yl)methyl)-5-fluoro-1,3-dihydro-2H-benzo[d]imidazole-2-one]: the concentration for half-maximal inhibition (IC50) was 31 nM on HDAC6 human recombinant (setting [1]) and over 10000 nM at HDAC1 (setting [2]).

Source of the values: patent US20230092890A1, “1, 3, 4-Oxadiazole derivative compounds as histone deacetylase 6 inhibitor, and the pharmaceutical composition comprising the same” (Chong Kun Dang Pharmaceutical Corp., priority 2019, published 2023).
